Eight molecules from patent publication US12398154B2, “Azaquinazoline pan-KRas inhibitors” (Mirati Therapeutics, Inc., priority 2020, dated 2025) can be followed below.

One test addresses KRas G12D (Homo sapiens, UniProt P01116, G12D). Kind of test: biochemical.
Another test concerns the target KRas G12V (Homo sapiens, UniProt P01116, G12V). Kind of test: biochemical.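 Further: KRas binding measured by TR-FRET displacement at room temperature, IC50 fitted from percent of control values.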
In a further test the target is KRas G12R (Homo sapiens, UniProt P01116, G12R). Kind of test: biochemical.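 Further: TR-FRET displacement assay of compound binding to KRas, read after one hour at room temperature, potency from a four-parameter fit of percent-of-control values.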
Sequence of KRas G12R (P01116 1-169 isoform P01116-2 G12R): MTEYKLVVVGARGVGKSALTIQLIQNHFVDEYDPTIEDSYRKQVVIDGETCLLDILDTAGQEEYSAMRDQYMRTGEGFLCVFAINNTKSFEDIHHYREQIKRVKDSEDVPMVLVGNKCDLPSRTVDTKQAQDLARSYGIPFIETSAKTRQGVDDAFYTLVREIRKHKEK
The next test concerns the target KRas G12A (Homo sapiens, UniProt P01116, G12A). As to the kind of experiment: biochemical.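 Further: binding to KRas measured by TR-FRET displacement after one hour at room temperature, IC50 from a four-parameter fit of percent-of-control values.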
The next test addresses KRas G12S (Homo sapiens, UniProt P01116, G12S). Kind of test: biochemical.
The next test concerns the target KRas G12C (Homo sapiens, UniProt P01116, G12C). As to the kind of experiment: biochemical.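 Further: binding to KRas assessed by TR-FRET displacement after one hour incubation at room temperature, potency fitted from percent-of-control values.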
Another test has as its target KRas WT (Homo sapiens, UniProt P01116). As to the kind of experiment: biochemical.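 Further: binding to KRas read as TR-FRET displacement after a one-hour room-temperature incubation, IC50 derived from percent-of-control values.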
For a further test, the system named is pERK in MKN1 cells. As to the kind of experiment: Inhibition of KRas phosphorylation of ERK (Cisbio HTRF pERK assay). To be noted: Homo sapiens, MKN-1, 3 h, read-out: Inhibition (HTRF IC50) of KRas-mediated Phosphorylation of ERK, MKN1.
The test system of the next test is pERK in PSN1 cells. The test is described as above. To be noted: Homo sapiens, PSN1, 3 h, read-out: Inhibition (HTRF IC50) of KRas-mediated Phosphorylation of ERK, PSN1. On the technique in general: In TR-FRET formats the signal depends on donor and acceptor labels being close together.
For another test, the system named is pERK in ASPC1 cells. The test is described as above. To be noted: Homo sapiens, ASPC1, read-out: Inhibition (HTRF IC50) of KRas-mediated Phosphorylation of ERK, AsPC-1.
The subject of a further test is pERK in H727 cells. Described as above. To be noted: Homo sapiens, NCI-H727, read-out: Inhibition (HTRF IC50) of KRas-mediated Phosphorylation of ERK, H727.
Another test relates to pERK in A549 cells. Described as above. To be noted: Homo sapiens, A549, read-out: Inhibition (HTRF IC50) of KRas-mediated Phosphorylation of ERK, A549.
Another test relates to pERK in H460 cells. Described as above. As to conditions: Homo sapiens, NCI-H460, read-out: Inhibition (HTRF IC50) of KRas-mediated Phosphorylation of ERK, H460.
The subject of the next test is pERK in HCT116 cells. The test is described as above. To be noted: Homo sapiens, HCT-116, read-out: Inhibition (HTRF IC50) of KRas-mediated Phosphorylation of ERK, HCT116.
A further test has as its system pERK in H358 cells. Described as above. As to conditions: Homo sapiens, NCI-H358, read-out: Inhibition (HTRF IC50) of KRas-mediated Phosphorylation of ERK, H358.

Sequence of KRas G12V (P01116 1-169 isoform P01116-2 G12V): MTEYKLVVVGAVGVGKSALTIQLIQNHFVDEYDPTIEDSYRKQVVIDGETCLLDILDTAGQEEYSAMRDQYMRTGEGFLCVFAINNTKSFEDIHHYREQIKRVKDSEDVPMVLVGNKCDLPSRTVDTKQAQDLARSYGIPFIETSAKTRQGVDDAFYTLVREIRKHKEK
Sequence of KRas G12D (P01116 1-169 isoform P01116-2 G12D): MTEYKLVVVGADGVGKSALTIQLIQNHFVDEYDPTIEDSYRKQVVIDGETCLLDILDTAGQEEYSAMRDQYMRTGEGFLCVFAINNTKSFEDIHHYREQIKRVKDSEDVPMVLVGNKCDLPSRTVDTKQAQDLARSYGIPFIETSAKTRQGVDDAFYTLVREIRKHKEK
Sequence of KRas G12C (P01116 1-169 isoform P01116-2 G12C): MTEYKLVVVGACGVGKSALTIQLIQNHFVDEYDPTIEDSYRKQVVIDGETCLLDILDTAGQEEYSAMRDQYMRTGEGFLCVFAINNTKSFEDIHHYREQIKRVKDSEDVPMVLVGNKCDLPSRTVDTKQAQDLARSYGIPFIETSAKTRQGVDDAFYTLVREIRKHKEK
Sequence of KRas WT (P01116 1-169 isoform P01116-2): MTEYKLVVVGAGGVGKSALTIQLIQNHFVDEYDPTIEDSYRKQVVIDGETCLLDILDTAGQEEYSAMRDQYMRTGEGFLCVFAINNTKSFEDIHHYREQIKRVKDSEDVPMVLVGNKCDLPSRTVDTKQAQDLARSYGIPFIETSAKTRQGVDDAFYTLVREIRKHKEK
Sequence of KRas G12S (P01116 1-169 isoform P01116-2 G12S): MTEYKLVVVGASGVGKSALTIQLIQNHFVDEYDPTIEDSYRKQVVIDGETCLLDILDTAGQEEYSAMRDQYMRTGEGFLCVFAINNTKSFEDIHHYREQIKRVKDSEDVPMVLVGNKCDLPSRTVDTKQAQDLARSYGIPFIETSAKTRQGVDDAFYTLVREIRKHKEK
Sequence of KRas G12A (P01116 1-169 isoform P01116-2 G12A): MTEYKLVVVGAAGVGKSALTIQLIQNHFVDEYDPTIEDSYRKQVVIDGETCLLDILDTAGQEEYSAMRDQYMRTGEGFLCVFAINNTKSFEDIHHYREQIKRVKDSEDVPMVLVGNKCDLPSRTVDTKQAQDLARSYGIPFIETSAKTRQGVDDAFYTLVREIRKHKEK

On to `CCc1c(F)ccc2cc(O)cc(-c3ncc4c(N5CCC[C@@](C)(O)C5)nc(OC[C@]56CCCN5[C@H](COC(=O)N(C)C)CC6)nc4c3F)c12` [Example 313, ((3S,7aR)-7a-(((7-(8-ethyl-7-fluoro-3-hydroxynaphthalen-1-yl)-8-fluoro-4-((R)-3-hydroxy-3-methylpiperidin-1-yl)pyrido[4,3-d]pyrimidin-2-yl)oxy)methyl)hexahydro-1H-pyrrolizin-3-yl)methyl dimethylcarbamate], for which the half-maximal inhibitory concentration (IC50) on KRas G12D, against KRas G12V, against KRas G12R, on KRas G12A, against KRas G12S and against KRas G12C was ≤ 0.002 µM in each case. Also, the IC50 – broadly, the concentration at which inhibition is half-maximal – was ≤ 0.002 µM on KRas WT; 0.007 µM with pERK in MKN1 cells; 2.12 µM in the test with pERK in PSN1 cells; 0.013 µM in the test on pERK in ASPC1 cells; 0.028 µM in the test with pERK in H727 cells; 0.038 µM in the test on pERK in A549 cells. The IC50 in the test on pERK in H460 cells turned out to be 0.038 µM; in the test on pERK in HCT116 cells, 0.042 µM; in the test with pERK in H358 cells it was 0.004 µM.
On to `CCc1c(F)ccc2cc(O)cc(-c3ncc4c(N5CCCC6(CNS(=O)(=O)N6)C5)nc(OC[C@@]56CCCN5C[C@H](F)C6)nc4c3F)c12` (stereo partly drawn) [Example 330, 7-(7-(8-ethyl-7-fluoro-3-hydroxynaphthalen-1-yl)-8-fluoro-2-(((2R,7aS)-2-fluorohexahydro-1H-pyrrolizin-7a-yl)methoxy)pyrido[4,3-d]pyrimidin-4-yl)-2-thia-1,3,7-triazaspiro[4.5]decane 2,2-dioxide], for which the IC50 is ≤ 0.002 µM against KRas G12D; ≤ 0.002 µM on KRas G12V; ≤ 0.002 µM at KRas G12R; ≤ 0.002 µM on KRas G12C; ≤ 0.002 µM on KRas WT; 0.008 µM in the test with pERK in MKN1 cells. Further, the IC50 in the test with pERK in PSN1 cells stood at 0.305 µM; in the test with pERK in ASPC1 cells, 0.029 µM; in the test with pERK in H727 cells, 0.061 µM; in the test on pERK in A549 cells it was 0.084 µM; with pERK in H460 cells it was 0.052 µM; with pERK in HCT116 cells it was 0.057 µM. The IC50 in the test on pERK in H358 cells turned out to be 0.011 µM.
Take `CCc1c(F)ccc2cc(O)cc(-c3ncc4c(N5CCCn6nc(C(=O)NC)cc6C5)nc(OC[C@@]56CCCN5C[C@H](F)C6)nc4c3F)c12` [Example 339, 5-(7-(8-ethyl-7-fluoro-3-hydroxynaphthalen-1-yl)-8-fluoro-2-(((2R,7aS)-2-fluorotetrahydro-1H-pyrrolizin-7a(5H)-yl)methoxy)pyrido[4,3-d]pyrimidin-4-yl)-N-methyl-5,6,7,8-tetrahydro-4H-pyrazolo[1,5-a][1,4]diazepine-2-carboxamide]: the IC50 against KRas G12D is ≤ 0.002 µM; against KRas G12V it was ≤ 0.002 µM; against KRas G12R, ≤ 0.002 µM; with pERK in MKN1 cells it was 0.012 µM; in the test on pERK in PSN1 cells, ≥ 10 µM; in the test on pERK in ASPC1 cells it was 0.048 µM. Also, the IC50 with pERK in H727 cells was determined as 0.072 µM; in the test on pERK in A549 cells, 0.557 µM; with pERK in H460 cells it was 0.991 µM; with pERK in HCT116 cells, 0.826 µM; with pERK in H358 cells, 0.095 µM.
`CCc1c(F)ccc2cc(O)cc(-c3ncc4c(N5CCCn6nc(C(=O)N7CCCC7)cc6C5)nc(OC[C@@]56CCCN5C[C@H](F)C6)nc4c3F)c12` [Example 355, (5-(7-(8-ethyl-7-fluoro-3-hydroxynaphthalen-1-yl)-8-fluoro-2-(((2R,7aS)-2-fluorohexahydro-1H-pyrrolizin-7a-yl)methoxy)pyrido[4,3-d]pyrimidin-4-yl)-5,6,7,8-tetrahydro-4H-pyrazolo[1,5-a][1,4]diazepin-2-yl)(pyrrolidin-1-yl)methanone]: the IC50 against KRas G12D was ≤ 0.002 µM; against KRas G12V, ≤ 0.002 µM; on KRas G12R, ≤ 0.002 µM; with pERK in MKN1 cells, 0.017 µM; with pERK in PSN1 cells, 6.77 µM; with pERK in ASPC1 cells, 0.008 µM. For the same molecule, the IC50 with pERK in H727 cells was 0.03 µM; with pERK in A549 cells, 0.14 µM; in the test with pERK in H460 cells, 0.27 µM; in the test with pERK in HCT116 cells, 0.471 µM; in the test on pERK in H358 cells, 0.016 µM.
On to `CCc1c(F)ccc2cc(O)cc(-c3ncc4c(N5CCC[C@@](C)(O)C5)nc(OC[C@]56CCCN5[C@@H](COC(=O)N(C)C)CC6)nc4c3F)c12` [Example 362, ((3R,7aR)-7a-(((7-(8-ethyl-7-fluoro-3-hydroxynaphthalen-1-yl)-8-fluoro-4-((R)-3-hydroxy-3-methylpiperidin-1-yl)pyrido[4,3-d]pyrimidin-2-yl)oxy)methyl)hexahydro-1H-pyrrolizin-3-yl)methyl dimethylcarbamate], for which the IC50 against KRas G12D turned out to be 0.003 µM; against KRas G12V, 0.003 µM; at KRas G12R it was 0.004 µM; in the test on pERK in MKN1 cells it was 0.037 µM; in the test with pERK in PSN1 cells, 5.13 µM; in the test with pERK in ASPC1 cells, 0.073 µM. The IC50 in the test on pERK in H727 cells was 0.313 µM; in the test on pERK in A549 cells it was 0.629 µM; with pERK in H460 cells, 0.404 µM; in the test with pERK in HCT116 cells it was 0.763 µM; with pERK in H358 cells, 0.113 µM.
Take `CCc1c(F)ccc2cc(O)cc(-c3ncc4c(N5CCC[C@@](C)(O)C5)nc(OCC5(CN6CCOCC6)CC5)nc4c3F)c12` [Example 332, (R)-1-(7-(8-ethyl-7-fluoro-3-hydroxynaphthalen-1-yl)-8-fluoro-2-((1-(morpholinomethyl)cyclopropyl)methoxy)pyrido[4,3-d]pyrimidin-4-yl)-3-methylpiperidin-3-ol]: the IC50 against KRas G12D is ≤ 0.002 µM; against KRas G12V it was ≤ 0.002 µM; at KRas G12R, 0.003 µM; with pERK in MKN1 cells, 0.002 µM; in the test with pERK in PSN1 cells, 0.71 µM; in the test on pERK in ASPC1 cells it was 0.006 µM. Also, the IC50 in the test on pERK in H727 cells is 0.031 µM; with pERK in A549 cells it was 0.013 µM; in the test with pERK in H460 cells, 0.022 µM; with pERK in HCT116 cells, 0.048 µM; in the test on pERK in H358 cells, 0.003 µM.
Turning to `Oc1cc(-c2ncc3c(N4CC5CC(O)C(C5)C4)nc(OC[C@@]45CCCN4C[C@H](F)C5)nc3c2F)c2c(Br)c(F)ccc2c1` (stereo partly drawn) [Example 402, 3-(7-(8-bromo-7-fluoro-3-hydroxynaphthalen-1-yl)-8-fluoro-2-(((2R,7aS)-2-fluorohexahydro-1H-pyrrolizin-7a-yl)methoxy)pyrido[4,3-d]pyrimidin-4-yl)-3-azabicyclo[3.2.1]octan-6-ol], the IC50 on KRas G12D was ≤ 0.002 µM; on KRas G12V, ≤ 0.002 µM; against KRas G12R it was ≤ 0.002 µM; with pERK in MKN1 cells it was 0.003 µM; in the test on pERK in PSN1 cells it was 0.514 µM; with pERK in ASPC1 cells it was 0.012 µM. Moreover, the IC50 amounted to 0.014 µM with pERK in H727 cells; 0.034 µM in the test with pERK in A549 cells; 0.051 µM with pERK in H460 cells; 0.046 µM in the test with pERK in HCT116 cells; 0.004 µM in the test on pERK in H358 cells.
`CCc1c(F)ccc2cc(O)cc(-c3ncc4c(N5CCCn6nc(C(=O)N(C)C)c(Cl)c6C5)nc(OC[C@@]56CCCN5C[C@H](F)C6)nc4c3F)c12` [Example 504, 3-chloro-5-(7-(8-ethyl-7-fluoro-3-hydroxynaphthalen-1-yl)-8-fluoro-2-(((2R,7aS)-2-fluorohexahydro-1H-pyrrolizin-7a-yl)methoxy)pyrido[4,3-d]pyrimidin-4-yl)-N,N-dimethyl-5,6,7,8-tetrahydro-4H-pyrazolo[1,5-a][1,4]diazepine-2-carboxamide]: the IC50 at KRas G12D was ≤ 0.002 µM; against KRas G12V, ≤ 0.002 µM; against KRas G12R, ≤ 0.002 µM; in the test on pERK in MKN1 cells, 0.008 µM; with pERK in PSN1 cells, 4.83 µM; in the test with pERK in ASPC1 cells, 0.004 µM. The IC50 in the test on pERK in H727 cells came to 0.006 µM; with pERK in A549 cells it was 0.011 µM; in the test on pERK in H460 cells, 0.053 µM; in the test with pERK in HCT116 cells, 0.081 µM; in the test on pERK in H358 cells, 0.002 µM.
